Results published in article PMC11199504, “New hemisynthetic derivatives of sphaeropsidin phytotoxins triggering severe endoplasmic reticulum swelling in cancer cells” (Scientific Reports, 2024).
Read-outs that look alike come from different tables or passages of the source.

Experiments:
[1] = tested on: 60 cancer cell line panel; conditions: NCI database value; ref NCI database; read-out: LC50 (NCI); cited from earlier work
A549 = assay: MTT colorimetric assay, A549; assay type: cell-based; conditions: Homo sapiens, 72 h treatment, mean ± SEM of six replicates of one experiment (1: 7, 13: 6 independent experiments), resistant to apoptosis, read-out: IC50 determined by MTT assays, A549
Excerpt: (§1) Cancer cell lines were obtained from either the European Collection of Cell Cultures (ECACC; Salisbury, UK) or the American Type Culture Collection (ATCC; Manassas, VA). The two glioma cell lines were the U373 (ECACC code 08061901) and Hs683 (ATCC HTB-138) cell lines. The carcinoma cell lines were the A549 non-small cell carcinoma cell line (ATCC code CCL 185) and the MCF-7 mammary breast carcinoma cell line (ATCC code HTB-22). The melanoma cell lines were the mouse B16F10 cells (ATCC code CRL-6475) and the human SKMEL-28 cells (ATCC code HTB-72). The ovarian cancer cell line A2780 and its cisplatin-resistant subline A2780cis were obtained from Sigma-Aldrich (St. Louis, MO, USA). Colon cancer HCT116 cells were obtained from ATCC (CCL-247) and the oxaliplatin-resistant subline HCT116/OxR established in the W. Berger lab[59]. The HeLa cell derivative KB-3-1 and the colchicine-selected, highly ABCB1-overexpressing subline KB-C-1 were generously donated by Dr. D. W. Shen, Bethesda, MD. RKOp53wt colon cancer cells together with the RKOp53KO (homozygous knock-out) subline[60] were generously provided by Dr. Vogelstein from John Hopkins University, Baltimore. The correct origin of all cell models was confirmed by STR during performance of the experiments. All cell lines were cultured in RPMI1640 culture medium supplemented with 10% heat-inactivated fetal bovine serum, 2% L-glutamine (0.6 mg/mL), 2% penicillin/streptomycin (200 IU/mL and 200 μg/mL) and 0.1 mg/mL gentamicin.
(§2) The MTT (3-(4,5-dimethylthiazol-2-yl)-2,5-diphenyl tetrazolium bromide) colorimetric assay has been conducted as described previously. Briefly, cells were seeded 24 h before their treatment with each compound for a period of 72 h. The concentrations tested ranged from 10 nM to 100 µM. Each assay was conducted in sextuplicates. The number of independent experiments is mentioned in the legend of the tables.

SKMEL-28 = assay: MTT colorimetric assay, SKMEL-28; assay type: cell-based; conditions: Homo sapiens, SK-MEL-28; 72 h treatment; mean ± SEM; resistant to apoptosis; read-out: IC50 determined by MTT assays, SKMEL-28
Excerpt: as §1, §2

U373 = assay: MTT colorimetric assay, U373; assay type: cell-based; conditions: Homo sapiens, U373 MG; 72 h treatment; mean ± SEM; resistant to apoptosis; read-out: IC50 determined by MTT assays, U373
Excerpt: as §1, §2

MCF7 = assay: MTT colorimetric assay, MCF7; assay type: cell-based; conditions: Homo sapiens, 72 h treatment, mean ± SEM, sensitive to apoptosis, read-out: IC50 determined by MTT assays, MCF7
Excerpt: as §1, §2

Hs683 = assay: MTT colorimetric assay, Hs683; assay type: cell-based; conditions: Homo sapiens, Hs 683; 72 h treatment; mean ± SEM; sensitive to apoptosis; read-out: IC50 determined by MTT assays, Hs683
Excerpt: as §1, §2

B16F10 = assay: MTT colorimetric assay, B16F10; assay type: cell-based; conditions: Mus musculus, B16-F10; 72 h treatment; mean ± SEM; sensitive to apoptosis; read-out: IC50 determined by MTT assays, B16F10
Excerpt: as §1, §2

[2] = tested on: A549, SKMEL-28, U373, MCF7, Hs683, B16F10; assay: MTT colorimetric assay, mean of the six cell lines; assay type: cell-based; conditions: for IC50: mean over the six cell lines, 72 h treatment, read-out: IC50 determined by MTT assays, Mean
Excerpt: as §1, §2

[3] = tested on: SKMEL-28 melanoma and U373 glioblastoma cells; assay: Morphological evaluation by phase contrast microscopy / videomicroscopy; assay type: cell-based, human; conditions: videomicroscopy in SKMEL-28 cells
Method: For the morphological evaluation of the effects induced by compounds 1 and 13, 6 × 10^4 cells were seeded on glass coverslips placed in 6 well plates a minimum 24 h before their treatment. At the end of the incubation period with the treatment, coverslips were rinsed once in PBS buffer and directly mounted on slides to allow visualization of the cell with an Axio.Imager.M2 microscope (G X40 and G X100).

Row | IC50 (A549) [nM] | IC50 (SKMEL-28) [nM] | IC50 (MCF7) [nM] | IC50 (B16F10) [nM] | IC50 ([2]; 72 h) [nM] | IC50 [2] [nM] | SMILES | CC50 [1] [nM] | IC50 (U373) [nM] | IC50 (Hs683) [nM] | delay in the cellular shrinkage versus SphA 1 [3] [h] | activity in the cancer cell panel ([2]; MTT, alone)
1 | 2400 ± 100 | 2560 ± 90 | 3720 ± 270 | 2600 ± 70 | 2750 ± 210 |  | C#CCCCC(=O)OC12OC(=O)C3(CCCC(C)(C)C13)C1(O)CCC(C)(C=C)C=C1C2=O (stereo not drawn) [Compound 3] |  | 2370 ± 90 | 2830 ± 130 | ≥ 24 | 
2 | 2660 ± 40 | 2740 ± 130 | 2480 ± 130 | 1810 ± 140 | 2640 ± 200 |  | COC(=O)CCCC=CC1(C)C=C2C(=O)C3(O)OC(=O)C4(CCCC(C)(C)C34)C2(O)CC1 (stereo not drawn) [Compound 6] |  | 2810 ± 80 | 3330 ± 100 |  | 
3 | 4500 ± 70 | 5060 ± 580 | 6880 ± 260 | 2330 ± 290 | 5030 ± 820 |  | COC(=O)CCC=CC1(C)C=C2C(=O)C3(O)OC(=O)C4(CCCC(C)(C)C34)C2(O)CC1 (stereo not drawn) [Compound 7] |  | 7750 ± 310 | 3630 ± 150 |  | 
4 | > 100000 | > 100000 | > 100000 | 81300 ± 2420 | > 94000 | > 94400 | CC1(C=CCCCC(=O)O)C=C2C(=O)C3(O)OC(=O)C4(CCCC(C)(C)C34)C2(O)CC1 (stereo not drawn) [Compound 8] |  | > 100000 | 85300 ± 5250 |  | inactive
5 | 630 ± 30 | 1150 ± 110 | 470 ± 30 | 520 ± 20 | 880 ± 160 |  | CCCCC=CC1(C)C=C2C(=O)C3(O)OC(=O)C4(CCCC(C)(C)C34)C2(O)CC1 (stereo not drawn) [Compound 9] |  | 1390 ± 150 | 1110 ± 140 |  | 
6 | 2960 ± 120 | 3070 ± 100 | 5360 ± 580 | 2000 ± 120 | 3790 ± 540 |  | CC1(C=CCCCCBr)C=C2C(=O)C3(O)OC(=O)C4(CCCC(C)(C)C34)C2(O)CC1 (stereo not drawn) [Compound 10] |  | 5010 ± 180 | 4350 ± 270 |  | 

Second part, the compound before the results:

Row | SMILES | IC50 (A549) [nM] | IC50 (SKMEL-28) [nM] | IC50 (MCF7) [nM] | IC50 (B16F10) [nM] | IC50 ([2]; 72 h) [nM] | IC50 [2] [nM] | CC50 [1] [nM] | IC50 (U373) [nM] | IC50 (Hs683) [nM] | delay in the cellular shrinkage versus SphA 1 [3] [h] | activity in the cancer cell panel ([2]; MTT, alone)
7 | CC(=O)N(C)c1ccc(Nc2cc(C)nc3ccc4[nH]cnc4c23)cc1 [Acodazole] |  |  |  |  |  |  | 114000 |  |  |  | 
8 | COc1cc(NS(C)(=O)=O)ccc1Nc1c2ccccc2nc2ccccc12 [Amsacrine] |  |  |  |  |  |  | 25000 |  |  |  | 
9 | CNC(=O)ON(C(C)=O)C(=O)NC [Caracemide] |  |  |  |  |  |  | 625000 |  |  |  | 
10 | C=CC1(C)C=C2C(=O)C3(OC(=O)c4ccccc4)OC(=O)C4(CCCC(C)(C)C34)C2(O)CC1 (stereo not drawn) [Compound 4] | 1760 ± 290 | 2290 ± 170 | 1950 ± 140 | 1880 ± 100 | 2100 ± 110 |  |  | 2190 ± 70 | 2500 ± 120 | ≥ 24 | 
11 | C=CC1(C)C=C2C(=O)C3(OC(=O)CCCCC(=O)O)OC(=O)C4(CCCC(C)(C)C34)C2(O)CC1 (stereo not drawn) [Compound 5] | 1920 ± 70 | 1610 ± 110 | 2090 ± 70 | 780 ± 90 | 1700 ± 190 |  |  | 1820 ± 140 | 1960 ± 180 |  | 
